Reference: patent US4389394A, “Methods for reducing dental caries” (Talres Development (N.A.) N.V., priority 1978, dated 1983)
Entries after “also recorded” stand apart in the source; their conditions may differ.

Columns and labels:
dental plaque = assay: (F) Human volunteers: acid production by dental plaque after mouthrinse (glucose pre-rinse); type: in vivo; details: statement in words
Description: The compound 4,1',6'-trichloro-4,1',6'-trideoxygalactosucrose was selected as a suitable candidate for further testing. A mouthrinse in accordance with the invention was prepared using the selected compound as active ingredient. The level of the active ingredient was initially chosen to be such that the mouthrinse tasted the same as a 15% w/v solution of sucrose.
Six subjects were used, who were first acquainted with the available toxicological data and who subsequently agreed to take part in the tests. The subjects were instructed not to clean their teeth on their day of testing. At sampling time, 0 min, each subject took 5% w/v glucose mouthrinse for 2 minutes, then waited a further 8 minutes before the buccal and lingual plaque of one side of the jaw (upper and lower) was removed and placed on aluminium foil and sealed. […]
Samples (0.2 ml) were tested after admixture with 0.1 ml 5% w/v glucose and 0.2 ml sterile saliva. The pH was monitored in quadruplicated tests.
Pooling of data at different times was not justifiable, and the Duncan procedure could not be followed. Data was therefore analysed by computer using an `Analysis of Variance` program and a `Description of Populations` program.

[1] = tested on: Streptococcus mutans NCTC 10832; assay: (A) Effect on reduction of pH by Streptococcus mutans; type: cell-based; details: for pH: 0.05 molar each saccharide, 37° C; for Mean pH: Duncan Procedure sub-sets, amino acids where named in the solution; for effect on acid production: statement in words
Excerpt: Mouth flora such as S. mutans cause dental caries by producing acid which erodes the tooth enamel. The cells exude a polysaccharide which firmly adheres them to the tooth surfaces as plaque, thus enhancing the local erosion by the acid. The effect of chlorodeoxysucroses on acid production by S. mutans in sucrose solutions was studied in comparison with the effect produced by xylitol, an agent proposed as a caries preventative.
(§1) Plain aqueous solutions were used and also solutions containing amino acids (protein hydrolysate) 1% w/v to approximate the buffering effect of natural saliva. Control experiments were effected using no saccharide in order to illustrate the endogenous metabolism of the organism. Each experiment was quadruplicated and was run at 37° C. The pH was measured at 0, 0.5, 1, 1.5,2, 3 and 4 hours.

[2] = West German Offenlegungsschrift No. 2700036; cited from earlier work
S. mutans [3] = assay: (C) Further tests on pH reduction; type: cell-based, Streptococcus mutans; details: for Mean pH: 0.055 molar chlorodeoxy derivative, pooled data for 2, 3 and 4 hours, Duncan procedure; for effect on acid production / pH: statement in words, pooled 2, 3 and 4 hours
Description: as §1
Twelve sets of tests were carried out in the same way as described above at (A) but using solutions which were 0.055 molar in the respective chlorodeoxy derivative.
Solutions of the following were employed:
(i) Saline, negative control for endogenous metabolism
(ii) Sucrose, positive control
(iii) 6,1',6'-trichloro-6,1',6'-trideoxysucrose, compound no. 7.
(iv) Compound no. 7 plus sucrose.
(v) 1',6'-dichloro-1',6'-dideoxysucrose, compound no. 4
(vi) Compound no. 4 plus sucrose
(vii) 4,1',6'-trichloro-4,1',6'-trideoxygalactosucrose, Compound no. 5.
(viii) Compound no. 5 plus sucrose
(ix) 4,6,6'-trichloro-4,6,6'-trideoxygalactosucrose, Compound no. 6
(x) Compound no. 6 plus sucrose
(xi) 1'-chloro-1'-deoxysucrose, compound no. 1
(xii) Compound no. 1 plus sucrose
The acid production was monitored as before.

S. mutans [4] = assay: (D) Further tests on adherence to teeth; type: cell-based, Streptococcus mutans; details: glass slide; 0.055 molar; Duncan procedure
Description: (§2) The extent to which cells of S. mutans adhere to teeth was investigated using a recognized model system. Solutions of the same substances as in (A) were made up, and the degree of deposition of suspended cells on to glass was studied using a "Magiscan" image analyser (Talyer et al., 1978 Praktischen Metallographie, Sonderbande 8: 433-442).
While recording the pH during the tests of (C), the adherence was monitored in the same way as in (B). The percentage coverage of a glass slide was determined at 0.5 and 4 hours for each solution, and the results treated by the Duncan procedure.

S. mutans [5] = assay: (B) Adherence to teeth: deposition of suspended cells on to glass (Magiscan image analyser); type: cell-based, Streptococcus mutans; details: for degree of adhesion: Mann Whitney U-test, statement in words; for Coverage (%) after 0.5 h / Coverage (%) after 4.0 h: mean of 40 determinations
Excerpt: as §2
Each reading is the mean of 40 determinations.

[6] = tested on: germ-free Liverpool hooded rats inoculated orally with Streptococcus mutans NCT 10823; assay: (E) Gnotobiotic rat caries model; type: in vivo; details: 21 days; diet 33% skim milk, 67% carbohydrate; S. mutans NCT 10823; statement in words
Description: Studies were carried out on the effect of chlorodeoxysucroses on cariogenic food products, using 4,1',6'-trichloro-4,1',6'-trideoxygalactosucrose as the chlorodeoxysucrose. Cariogenicity was examined using the gnotobiotic rat caries model (see for example Drucker and Green, Arch. Oral Biol. Vol 23 pp 183-187).
The experiment involved the use of germ-free Liverpool hooded rats inoculated orally with Streptococcus mutans NCT 10823 (a caries-producing organism). The rats were fed a diet consisting essentially of 33% by weight skim milk and 67% by weight carbohydrate. The carbohydrate consisted of (i) starch, or (ii) sucrose, or (iii) starch together with sufficient of the chlorodeoxysucrose to give a sweetness as perceived by a human of the same order as that of the sucrose. After 21 days, the rats were sacrificed and the lower jaw lesions were counted to give a caries score for each rat (see Konig, Marthaler and Muhlemann, Dt. Zahn-Mund-u. Kieferheilk Vol. 29, 99-127).

[7] = Acute oral toxicity in the rat; details: in vivo, per os, maximum dose practically possible
Excerpt: For example, in the rat the compound no.

S. mutans [8] = assay: Scanning electron microscopy of glass with adherent cells; type: cell-based, Streptococcus mutans; details: sucrose medium; qualitative

Structure (SMILES) | pH ([1]; 0 h, no amino acids) | pH ([1]; 0.5 h, no amino acids) | pH ([1]; 1.0 h, no amino acids) | pH ([1]; 1.5 h, no amino acids) | pH ([1]; 2.0 h, no amino acids) | pH ([1]; 3.0 h, no amino acids) | pH ([1]; 4.0 h, no amino acids) | Mean pH [1] | Mean pH (S. mutans [3]) | % coverage after 0.5 hours (S. mutans [4]) [%] | % coverage after 4 hours (S. mutans [4]) [%] | Coverage (%) after 0.5 h (S. mutans [5]; no amino acid) [%] | Coverage (%) after 4.0 h (S. mutans [5]; no amino acid) [%] | extracellular coating and size of clumps of adherent cells (S. mutans [8]) | other results
O[C@@H]1[C@@H](O)[C@@H](O[C@]2(CCl)O[C@H](CCl)[C@@H](O)[C@@H]2O)O[C@H](CCl)[C@H]1O | – | – | – | – | – | – | – | – | – | – | – | – | – | – | antiacidogenic effect on plaque (dental plaque): Statistically conclusive proof that the mouthrinse was evincing an anti-acidogenic effect was not available; yield of plaque as perceived by subjects (dental plaque): increased the yield of plaque
OC[C@H]1O[C@H](O[C@]2(CCl)O[C@H](CCl)[C@@H](O)[C@@H]2O)[C@H](O)[C@@H](O)[C@H]1Cl [Compound no. 5, 4-chloro-4-deoxy-α-D-galactopyranosyl-1,6-dichloro-1,6-dideoxy-β-D-fructofuranoside] | 5.88 | 5.67 | 5.69 | 5.69 | 5.61 | 5.67 | 5.63 | 5.64 | 6.82 | 41.4 | 58.4 | 30.42 | 64.81 | found to reduce the extracellular coating and the size of the clumps | effect on acid production ([1]; listed as TGS): always had a favourable effect which was statistically significant; also recorded: reduced the amount of acid produced; also recorded: on its own had a favourable effect against the endogenous metabolism of the micro-organism; sweetness relative to sucrose [2]: many times sweeter than sucrose; effect on acid production / pH (S. mutans [3]): give a better result than the negative control, saline; effect on acid production / pH (S. mutans [3]; listed as (vii)): one pH unit less than that of solution (ii); effect on acid production / pH (S. mutans [3]; listed as no. 5): especially effective; degree of adhesion (S. mutans [5]; listed as TGS): reduces the degree of adhesion significantly; also recorded: the reduction is greater than that of xylitol; cariogenicity (caries score) [6]: appeared to be decreasing the cariogenicity of the starch; LD50 [7]: > 16000 mg/kg
OC[C@H]1O[C@@](CO)(O[C@H]2O[C@H](CO)[C@@H](O)[C@H](O)[C@H]2O)[C@@H](O)[C@@H]1O [Sucrose, sucrose] | 5.69 | 4.57 | 4.57 | 4.58 | 4.54 | 4.63 | 4.55 | 4.57 | 4.33 | 51.2 | 69.2 | 37.28 | 65.83 | characteristically clumped and were coated with extracellular polysaccharide | pH ([1]; 0 h, with amino acids 1% w/v): 5.98; pH ([1]; 0.5 h, with amino acids 1% w/v): 5.55; pH ([1]; 1.0 h, with amino acids 1% w/v): 5.36; pH ([1]; 1.5 h, with amino acids 1% w/v): 5.10; pH ([1]; 2.0 h, with amino acids 1% w/v): 5.00; pH ([1]; 3.0 h, with amino acids 1% w/v): 4.92; pH ([1]; 4.0 h, with amino acids 1% w/v): 4.79; Coverage (%) after 0.5 h (S. mutans [5]; with amino acid): 31.89%; Coverage (%) after 4.0 h (S. mutans [5]; with amino acid): 75.95%
OC[C@@H](O)[C@H](O)[C@@H](O)CO [Xylitol, xylitol] | 5.94 | 5.50 | 5.42 | 5.39 | 5.32 | 5.38 | 5.37 | 5.36 | – | – | – | 42.31 | 74.21 | No such effect was observed | effect on acid production [1]: never had a statistically significally effect; also recorded: non-cariogenic but not anti-cariogenic; also recorded: gave about the same mean pH as when carbohydrate was excluded; degree of adhesion (S. mutans [5]): appeared to cause an increase rather than a decrease
